# Experimental data published in patent US6599917B1, “Quinuclidine compounds and drugs containing the same as the active ingredient” (priority 1999, dated 2003).
# pIC50: −log10 of the molar value.
# Molecular target: T1, squalene synthesizing enzyme (Rattus norvegicus, UniProt Q02769)
# T1 construct: The liver was excised from a male Spraugue-Dawly rat; from tissue; host or cells: liver microsome fraction of male Sprague-Dawley rat (8 to 9 weeks)
# T1 sequence (Q02769 1-416): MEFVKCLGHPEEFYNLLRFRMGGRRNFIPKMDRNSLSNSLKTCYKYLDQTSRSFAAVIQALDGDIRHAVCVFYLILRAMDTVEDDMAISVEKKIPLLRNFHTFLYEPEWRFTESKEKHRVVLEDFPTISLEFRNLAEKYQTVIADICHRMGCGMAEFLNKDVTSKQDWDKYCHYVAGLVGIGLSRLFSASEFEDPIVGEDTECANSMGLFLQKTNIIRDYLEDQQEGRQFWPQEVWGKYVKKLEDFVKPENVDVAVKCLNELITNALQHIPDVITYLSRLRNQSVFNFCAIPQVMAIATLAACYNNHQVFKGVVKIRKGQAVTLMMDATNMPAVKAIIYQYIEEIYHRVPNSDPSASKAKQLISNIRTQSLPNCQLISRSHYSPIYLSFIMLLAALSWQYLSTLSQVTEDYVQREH
# Assay: Measurement of squalene synthesizing enzyme inhibitive activity by using a rat liver microsome
# Format: biochemical
# Conditions: [3H]-farnesylpyrophosphoric acid
# Method: Measurement of Squalene Synthesizing Enzyme Inhibitive Activity by Using a Rat Liver Microsome
# (I) The reaction was run on a scale of 500 μ1. 200 µl of a solution containing 125 mM tris-hydrochloric acid (pH: 7.3), 2.5 mM magnesium chloride, 5 mM potassium fluoride and 10 mM reduction type nicotinamidoadenine dinucleotide phosphoric acid, 100 µl of the specimen solution with a 5-fold concentration, 100 µl of distilled water and 50 µl of 0.4 to 1 mg/ml rat liver microsome prepared by the following method were mixed.
# (II) The above mixture was pre-incubated at 37° C. for 10 minutes and thereafter, 50 µl of 100 μM [^3H]-farnesylpyrophosphoric acid (30 mCi/mmol, NEN) was added to the mixture to start a reaction. The reaction was continued at 37° C. for 10 minutes. 1 ml of ethanol was added to the resulting mixture to terminate the reaction and then 1 ml of distilled water and 3 ml of petroleum ether were added to the reaction solution, which was then shaken for 30 minutes. The water phase was separated from the oil phase, the water phase was frozen at −70° C. in dry ice/methanol and the radiative activity of the organic phase was measured using a liquid scintillator. Or the organic phase was evaporated to dryness using nitrogen gas and the residue was dissolved as a marker in 25 µl of chloroform containing squalene, farnesol and cholesterol. This sample was spotted on a TCL plate (Merck) and developed using heptane for 15 to 20 minutes. A band of squalene was cut from the plate to measure the radiative activity by using a liquid scintillation counter. The data was expressed by a concentration (IC50) at which 50% of the radiative activity of a control group was inhibited.
# Method of the Preparation of a Rat Liver Microsome
# The following operations were all carried out on ice and the centrifugation was performed at 4° C. The liver was excised from a male Spraugue-Dawly rat (hereinafter referred to as SD rat) (8 to 9 weeks age) and perfused with 1.15% potassium chloride to remove the blood. Then, the liver was minced using a forceps and the minced liver was homogenized using a Teflon homogenizer. The resulting sample was centrifuged at 16000×g twice for 15 minutes. The supernatant was further centrifuged at 105000×g for 60 minutes. The obtained deposit was determined as a microsome fraction, which was then suspended in a 25 mM tris-hydrochloric acid solution. The concentration of protein was measured quantitatively by a Bradford method and the concentration of protein was adjusted to 20 mg/ml by using the same solution. The resulting solution was stored at […].
row,Molecule,pIC50
1,3-[4-Benzyl-2-(3-pyridyl)-5-pyridyl]ethynyl-3-quinuclidinol [Example 18],7.60
2,"OC1(C#Cc2cnc(-c3ccc4c(c3)OCO4)cc2Cc2ccccc2)CN2CCC1CC2 (stereo not drawn) [Example 1, 3-[4-Benzyl-2-(3,4-methylenedioxyphenyl)-5-pyridyl]ethynyl-3-quinuclidinol]",8.00
3,"OC1(C#Cc2cnc(-c3ccccn3)cc2Cc2ccccc2)CN2CCC1CC2 (stereo not drawn) [Example 2, 3-[4-Benzyl-2-(2-pyridyl)-5-pyridyl]ethynyl-3-quinuclidinol]",7.70
4,"COC1CCN(c2ccc(C#CC3(O)CN4CCC3CC4)c(Cc3ccccc3)n2)CC1 (stereo not drawn) [Example 9, 3-[2-Benzyl-6-(4-methoxypiperidino)-3-pyridyl)ethynyl-3-quinuclidinol]",7.47
5,"CO[C@@H]1CN(c2ccc(C#C[C@@]3(O)CN4CCC3CC4)c(Cc3ccccc3)n2)C[C@H]1O [Example 10, (3R)-3-[2-Benzyl-6-[(3R,4R)-3-hydroxy-4-methoxypyrrolidine-1-yl]-3-pyridyl)ethynyl-3-quinuclidinol]",8.70
6,"OC1(C#Cc2cnc(-c3ccc4c(c3)OCO4)nc2Cc2ccccc2)CN2CCC1CC2 (stereo not drawn) [Example 19, 3-[4-Benzyl-2-(3,4-methylenedioxyphenyl)-5-pyrimidyl]ethynyl-3-quinuclidinol]",8.00
7,"CO[C@@H]1CN(c2ccc(C#C[C@@]3(O)CN4CCC3CC4)c(Cc3ccccc3)n2)C[C@H]1OC [Example 104, (3R)-3-[2-Benzyl-6-[(3R,4R)-3,4-dimethoxypyrrolidine-1-yl)-3-pyridyl]ethynyl-3-quinuclidinol]",8.17
8,"O[C@]1(C#Cc2cc(Cl)c(N3CCC4(C3)OCCO4)nc2Cc2ccccc2)CN2CCC1CC2 [Example 119, (3R)-3-[2-Benzyl-5-chloro-6-(3,3-ethylenedioxypyrrolidine-1-yl)-3-pyridyl]ethynyl-3-quinuclidinol]",8.41
9,"O=C1[C@H](O)CCN1c1ccc(C#C[C@@]2(O)CN3CCC2CC3)c(Cc2ccccc2)n1 [Example 142, (3R)-3-[2-Benzyl-6-[(3R)-3-hydroxy-2-pyrrolidinone-1-yl]-3-pyridyl]ethynyl-3-quinuclidinol]",8.30
10,"CO[C@@H]1CCN(c2ccc(C#C[C@@]3(O)CN4CCC3CC4)c(Cc3ccccc3)n2)C1=O [Example 144, (3R)-3-[2-Benzyl-6-[(3R)-3-methoxy-2-pyrrolidinone-1-yl]-3-pyridyl]ethynyl-3-quinuclidinol]",8.59
11,"O[C@]1(C#Cc2cnc(-c3ccc4c(c3)OCO4)cc2Cc2ccccc2)CN2CCC1CC2 [Example 180, (3R)-3-[4-Benzyl-2-(3,4-methylenedioxyphenyl)-5-pyridyl]ethynyl-3-quinuclidinol]",8.20

# Test system: cholesterol biosynthesis
# Assay: Measurement of cholesterol biosynthesis inhibitive activity in a rat
# Format: in vivo
# Conditions: 2 h; male SD rat, oral, dose 2 mg/kg, inhibition rate to control group
# Method: Measurement of Cholesterol Biosynthesis Inhibitive Activity in a Rat
# (I) An SPF grade male SD rat (4 weeks age, SLC) was bred for more than one week in a day-night-reversal room and subjected to an experiment made in the daytime. The compound dissolved in a 2% Tween 80 solution was administered (5 ml/kg) to the rat using an oral sonde. After one hour, a [1-^14C]Acetic acid, sodium salt (1.67-2.22 GBq/mmol, 37 MBq/ml, NEN) prepared by diluting to 1.85 MBq/ml by using physiological saline was intraabdominally administered (300 μ1/animal). After one hour, the rat was anesthetized by diethyl ether to carry out exsanguination from the aorta abdominalis. The collected blood was centrifuged at 3000 rpm for 10 minutes to prepare blood plasma.
# (II) 1 ml of 4N KOH and 1 ml of ethanol were added to 2 ml of the blood plasma, which was then incubated at 65° C. for one hour and there after, 3 ml of petroleum ether was added. The plasma was shaken for 30 minutes. After the water phase was separated from the organic phase by centrifugation, it was frozen at −80° C. and the radiative activity of the organic phase was measured using a liquid scintillation counter. Or the organic phase was evaporated to dryness using nitrogen gas and the residue was dissolved as a marker in 25 µl of chloroform containing squalene, farnesol and cholesterol. This sample was applied to a TCL plate (Merck) and developed using toluene and isopropyl ether (1:1) for 15 to 20 minutes. A band of cholesterol was cut from the plate to measure the radiative activity by using a liquid scintillation counter. The cholesterol biosynthesis inhibition activity was expressed by an inhibition rate (%) to a control group.
row,Molecule,inhibition in vivo at 2 mg/kg [%]
1,"CO[C@@H]1CN(c2ccc(C#C[C@@]3(O)CN4CCC3CC4)c(Cc3ccccc3)n2)C[C@H]1OC [Example 104, (3R)-3-[2-Benzyl-6-[(3R,4R)-3,4-dimethoxypyrrolidine-1-yl)-3-pyridyl]ethynyl-3-quinuclidinol]",88

# Same assay, conditions: 2 h; male SD rat, oral, dose 3 mg/kg, inhibition rate to control group
row,Molecule,inhibition in vivo at 3 mg/kg [%]
1,"COCCOc1cc(Cc2ccccc2)c(C#CC2(O)CN3CCC2CC3)cn1 (stereo not drawn) [Example 6, 3-[4-Benzyl-2-(2-methoxyethoxy)-5-pyridyl]ethynyl-3-quinuclidinol]",73
2,"COCCCNc1ccc(C#CC2(O)CN3CCC2CC3)c(Cc2ccccc2)n1 (stereo not drawn) [Example 11, 3-[2-Benzyl-6-(3-methoxypropylamino)-3-pyridyl)ethynyl-3-quinuclidinol]",72
3,"COCCOc1ccc(C#CC2(O)CN3CCC2CC3)c(Cc2ccccc2)n1 (stereo not drawn) [Example 12, 3-[2-Benzyl-6-(2-methoxyethyloxy)-3-pyridyl)ethynyl-3-quinuclidinol]",78
4,"COCCCOc1ccc(C#CC2(O)CN3CCC2CC3)c(Cc2ccccc2)n1 (stereo not drawn) [Example 13, 3-[2-Benzyl-6-(3-methoxypropyloxy)-3-pyridyl]ethynyl-3-quinuclidinol]",87
5,"CO[C@@H]1CN(c2ccc(C#C[C@@]3(O)CN4CCC3CC4)c(Cc3ccccc3)n2)C(=O)[C@@H]1OC [Example 123, (3R)-3-[2-Benzyl-6-[(3R,4R)-3,4-dimethoxy-2-pyrrolidinone-1-yl]-3-pyridyl]ethynyl-3-quinuclidinol]",86
6,"O=C1[C@H](O)CCN1c1ccc(C#C[C@@]2(O)CN3CCC2CC3)c(Cc2ccccc2)n1 [Example 142, (3R)-3-[2-Benzyl-6-[(3R)-3-hydroxy-2-pyrrolidinone-1-yl]-3-pyridyl]ethynyl-3-quinuclidinol]",82
7,"COCCOc1ccc(C#C[C@@]2(O)CN3CCC2CC3)c(Cc2ccccc2)n1 [Example 147, (3R)-3-[2-Benzyl-6-(2-methoxyethyl)oxy-3-pyridyl]ethynyl-3-quinuclidinol]",87

# Same assay, conditions: male SD rat, oral, dose 3 mg/kg, inhibition rate to control group
row,Molecule,Cholesterol biosynthesis inhibitive activity inhibition (%)
1,"COC(=O)CCC(=O)OCCCOc1ccc(C#CC2(O)CN3CCC2CC3)c(Cc2ccccc2)n1 (stereo not drawn) [Example 168, 3-[2-Benzyl-6-[3-(3-methoxycarbonylpropanoyloxy)propyl]oxy-3-pyridyl]ethynyl-3-quinclidinol]",89
2,"C[C@H](NC(=O)OC(C)(C)C)C(=O)OCCCOc1ccc(C#CC2(O)CN3CCC2CC3)c(Cc2ccccc2)n1 (stereo partly drawn) [Example 169, 3-[2-Benzyl-6-[3-[N-(tert-butoxycarbonyl)aranyloxy]propyl]oxy-3-pyridyl]ethynyl-3-quinuclidinol]",92
